Where a name gives a salt, the structure may show the parent alone.
Target: CCR8 (Homo sapiens, UniProt P51685)
Assay: Tango assay (Tango-CCR8-Gal4-CHO-K1 cells, CCL1-stimulated, ONE-Glo luminescence)
Settings: Tango Assay IC50, Inhibition of CCR8 Tango cell in vitro

Chain of CCR8 (P51685 whole entry, the tested form may be a part): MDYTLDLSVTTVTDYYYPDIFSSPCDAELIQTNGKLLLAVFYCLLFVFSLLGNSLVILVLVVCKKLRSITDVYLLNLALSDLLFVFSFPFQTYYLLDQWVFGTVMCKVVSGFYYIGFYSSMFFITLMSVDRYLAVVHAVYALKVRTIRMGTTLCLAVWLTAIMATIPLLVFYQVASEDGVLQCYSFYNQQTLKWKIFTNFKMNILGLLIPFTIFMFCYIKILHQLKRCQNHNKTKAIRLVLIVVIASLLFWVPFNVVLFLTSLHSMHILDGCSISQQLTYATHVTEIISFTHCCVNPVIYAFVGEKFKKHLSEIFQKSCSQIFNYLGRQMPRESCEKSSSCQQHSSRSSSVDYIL

IC50: 9 nM
Structure (SMILES): Cc1ccccc1C(=O)Nc1c(C)cc(S(=O)(=O)N[C@H](C)C2CCNCC2)cc1Cl [Compound 180A, (R)-N-(2-chloro-6-methyl-4-(N-(1-(piperidin-4-yl)ethyl)sulfamoyl)phenyl)-2-methylbenzamide hydrochloride]

From patent publication US12692239B2, “Methods and compositions for targeting Tregs using CCR8 inhibitors” (Nanjing Immunophage Biomedical Co., Ltd., priority 2020, dated 2026)
